The target of one experiment is yeast α-glucosidase. The experiment in a line: α-Glucosidase inhibitory activity assay. The note with it: for IC50: compound concentration that inhibits α-glucosidase activity by 50%, acarbose positive control, read-out: IC50 against α-glucosidase; for α-glucosidase inhibitory activity (in words): qualitative statement. The class given is biochemical. The text has this: α-Glucosidase inhibitory activity was examined by the method described by Omar et al..

The next experiment concerns glucose-loaded rats. More on the design: method as in PMID 11237187. The note with it: cited from earlier work.

“Also recorded” adds a separate entry of the source.

Usually IC50 stands for the midpoint of a concentration-inhibition curve. Take `CC1(C)CC[C@]2(C=O)[C@@H](O)C[C@]3(C)C(=CC[C@@H]4[C@@]5(C)CC[C@H](O[C@@H]6O[C@H](C(=O)O)[C@@H](O)[C@H](O)[C@H]6O)C(C)(C)[C@@H]5CC[C@]43C)[C@@H]2C1` [Compound 1, Ligushicoside A]: on yeast α-glucosidase, the IC50 was found to be 18.7 ± 1.7 µM and the “α-glucosidase inhibitory activity (in words)” value was “excellent inhibitory activities; also recorded: excellent inhibitory activity”. As for `COC(=O)[C@H]1O[C@@H](O[C@H]2CC[C@]3(C)[C@H]4CC=C5[C@@H]6CC(C)(C)CC[C@]6(C=O)[C@@H](O)C[C@@]5(C)[C@]4(C)CC[C@H]3C2(C)C)[C@H](O)[C@@H](O)[C@@H]1O` [Compound 2, Ligushicoside B], on yeast α-glucosidase, the half-maximal inhibitory concentration (IC50) was 37.9 ± 3.6 µM and the “α-glucosidase inhibitory activity (in words)” value is recorded as “excellent inhibitory activities; also recorded: excellent inhibitory activity”. As to `COC(=O)[C@H]1O[C@@H](O[C@H]2CC[C@]3(C)[C@H]4CC=C5[C@@H]6CC(C)(C)CC[C@]6(C)[C@@H](O)C[C@@]5(C)[C@]4(C)C[C@@H](O)[C@H]3C2(C)C)[C@H](O)[C@@H](O)[C@@H]1O` [Compound 3, Ligushicoside C], at yeast α-glucosidase, the IC50 is 105 ± 4.3 µM. Regarding `COC(=O)[C@H]1O[C@@H](O[C@H]2CC[C@]3(C)[C@H]4CC=C5[C@@H]6CC(C)(C)CC[C@]6(CO)[C@@H](O)C[C@@]5(C)[C@]4(C)C[C@@H](O)[C@H]3C2(C)C)[C@H](O)[C@@H](O)[C@@H]1O` [Compound 4, Ligushicoside D], the IC50 at yeast α-glucosidase was determined as 89.7 ± 5.1 µM. Consider `COC(=O)[C@H]1O[C@@H](O[C@H]2CC[C@]3(C)[C@H]4CC=C5[C@@H]6CC(C)(C)CC[C@]6(CO)[C@@H](O)C[C@@]5(C)[C@]4(C)CC[C@H]3C2(C)C)[C@H](O)[C@@H](O)[C@@H]1O` [Compound 5, Ligushicoside E], for which the IC50 at yeast α-glucosidase is 154 ± 11.2 µM.

Turning to `CC1(C)CC[C@]2(CO)[C@@H](O)C[C@]3(C)C(=CC[C@@H]4[C@@]5(C)CC[C@H](O[C@@H]6O[C@H](C(=O)O)[C@@H](O)[C@H](O)[C@H]6O)C(C)(C)[C@@H]5CC[C@]43C)[C@@H]2C1` [Compound 6, longispinogenin 3-O-β-D-glucuronopyranoside], the IC50 at yeast α-glucosidase was found to be 42.6 ± 5.9 µM. On to `CC1(C)CC[C@]2(C(=O)O)CC[C@]3(C)C(=CC[C@@H]4[C@@]5(C)CC[C@H](O[C@@H]6O[C@H](C(=O)O)[C@@H](O)[C@H](O)[C@H]6O)C(C)(C)[C@@H]5CC[C@]43C)[C@@H]2C1` [Compound 7, calenduloside E], for which the IC50 at yeast α-glucosidase was 57.6 ± 6.8 µM. The “effect on the incensement of serum glucose levels” value in the experiment on glucose-loaded rats is “significant effects; also recorded: strongly inhibited”.

Turning to `COC(=O)[C@H]1O[C@@H](O[C@H]2CC[C@]3(C)[C@H]4CC=C5[C@@H]6CC(C)(C)CC[C@]6(C(=O)O)CC[C@@]5(C)[C@]4(C)CC[C@H]3C2(C)C)[C@H](O)[C@@H](O)[C@@H]1O` [Compound 8, calenduloside E 6′-methyl ester], on yeast α-glucosidase, the IC50 was found to be 134 ± 3.3 µM. The “effect on the incensement of serum glucose levels” value in the experiment on glucose-loaded rats is “significant effects”.

(Values after paper PMC6150216, “Oleanane-Type Saponins from the Roots of Ligulariopsis shichuana and Their α-Glucosidase Inhibitory Activities” (Molecules : A Journal of Synthetic Chemistry and Natural …, 2017).)
